In US4379148A, “Analgesic and anti-inflammatory composition” (priority 1981, dated 1983):
Where two headings read alike, the source gives them in different places.

Legend:
[1] = Anti-inflammatory Test by Whittle's Method (acetic acid, dye in peritoneal exudate); type: in vivo, Male ddY mice
Experimental: Male ddY mice (18-22 g) fasted for 18 hours were divided into test groups and a control group of 7 or 8 animals each. […] Ten minutes later, 10 ml/kg of 0.7% acetic acid dissolved in physiological saline was injected intraperitoneally into all animals and 20 minutes thereafter the animals were sacrificed. The amount of the dye in the peritoneal exudate was determined at 590 nm by using a spectrophotometer (Hitachi Instrument Co.). The ED30 was defined as the dose which decreased the amount of dye of the control group by 30%, and was determined graphically.

[2] = in words; for inhibitory effect in combination with emorfazone: combination with 100 mg/kg of emorfazone
Experimental: Female Sprague-Dawley rats (180-220 g) were used. […] On day 0 of the test, the adjuvant containing 0.6 mg of Mycobacterium butylicum (Difco) in 0.1 ml of liquid paraffin was injected into the plantar surface of the right hind paw. The test drugs were administered orally once a day for 15 days. The severity of inflammation of the 4 paws and the tail of each rat was evaluated visually at day 30 and scored by a point system. The grading for each lesion was on a 0 to 3 scale with 0 indicating absence of inflammation and 3 indicating maximum inflammation.

[3] = Analgesic Test by Randall-Selitto Method (carrageenin inflammatory pain); type: in vivo, Male Wistar rats; settings: for ED50: Rattus norvegicus, po, read-out: ED50 (dose that increased the mean pain threshold of the control group by 50%), drug alone; for ED50 dose obtained experimentally, with emorfazone 4.5 / theoretical additive ED50 dose, with emorfazone 4.5 / ED50 dose obtained experimentally, with emorfazone 9 / theoretical additive ED50 dose, with emorfazone 9: p.o.; for ED50 dose obtained experimentally, with emorfazone 4.5 / theoretical additive ED50 dose, with emorfazone 4.5: combined with emorfazone 4.5 mg/kg; for ED50 dose obtained experimentally, with emorfazone 9 / theoretical additive ED50 dose, with emorfazone 9: combined with emorfazone 9 mg/kg
Experimental: Male Wistar rats (120-140 g) fasted for 18 hours were divided into test groups and a control group of 5 animals per group. […] The pain threshold was measured after the carrageenin injection at hourly intervals for 3 hours with an analgesy meter (Ugo Basile, Milan).

[4] = in vivo; settings: mouse, po
[5] = Analgesic Test by Phenylquinone Writhing Method; type: in vivo, Male ddY mice; settings: for ED50: Mus musculus, po, read-out: ED50 (dose that reduced the number of writhes of the control group by 50%), drug alone; for combined analgesic effect with emorfazone: combination with emorfazone, in words; for ED50 dose obtained experimentally, with emorfazone 10 / theoretical additive ED50 dose, with emorfazone 10 / ED50 dose obtained experimentally, with emorfazone 20 / theoretical additive ED50 dose, with emorfazone 20: p.o.; for ED50 dose obtained experimentally, with emorfazone 10: combined with emorfazone 10 mg/kg (1/4 of its ED50); for theoretical additive ED50 dose, with emorfazone 10: combined with emorfazone 10 mg/kg; for ED50 dose obtained experimentally, with emorfazone 20: combined with emorfazone 20 mg/kg (1/2 of its ED50); for theoretical additive ED50 dose, with emorfazone 20: combined with emorfazone 20 mg/kg
Experimental: Male ddY mice (18-22 g) fasted for 18 hours were divided into test groups and a control group of 7 animals per group. […] The number of writhes was counted for 20 minutes after the p-phenylquinone injection.

[6] = p.o., combined with emorfazone 240 mg/kg
[7] = tested on: biosynthesis of prostaglandin; assay: inhibition of the biosynthesis of prostaglandin; type: biochemical; settings: in words
[8] = Mus musculus, po; read-out: ED30 (dose which decreased the amount of dye of the control group by 30%), drug alone
[9] = p.o.; combined with emorfazone 28.8 mg/kg
[10] = p.o.; combined with emorfazone 28.8 mg/kg; theoretical additive dose
[11] = p.o.; combined with emorfazone 86 mg/kg
[12] = p.o.; combined with emorfazone 86 mg/kg; theoretical additive dose
[13] = LD50 dose obtained experimentally, with emorfazone 240, p.o., combined with emorfazone 240 mg/kg

SMILES | ED30 [1, 8] [mg/kg] | ED30 dose obtained experimentally, with emorfazone 28.8 [1, 9] [mg/kg] | theoretical additive ED30 dose, with emorfazone 28.8 [1, 10] [mg/kg] | ED30 dose obtained experimentally, with emorfazone 86 [1, 11] [mg/kg] | theoretical additive ED30 dose, with emorfazone 86 [1, 12] [mg/kg] | inhibitory effect in combination with emorfazone [2] | ED50 [3] [mg/kg] | ED50 dose obtained experimentally, with emorfazone 4.5 [3] [mg/kg] | theoretical additive ED50 dose, with emorfazone 4.5 [3] [mg/kg] | ED50 dose obtained experimentally, with emorfazone 9 [3] [mg/kg] | theoretical additive ED50 dose, with emorfazone 9 [3] [mg/kg] | LD50 at 168 h [4] [mg/kg] | LD50 at 168 h [4, 13] [mg/kg] | ED50 [5] [mg/kg] | combined analgesic effect with emorfazone [5] | ED50 dose obtained experimentally, with emorfazone 10 [5] [mg/kg] | theoretical additive ED50 dose, with emorfazone 10 [5] [mg/kg] | ED50 dose obtained experimentally, with emorfazone 20 [5] [mg/kg] | theoretical additive ED50 dose, with emorfazone 20 [5] [mg/kg] | theoretical additive LD50 dose, with emorfazone 240 [6] [mg/kg] | other results
CC(=O)Oc1ccccc1C(=O)O [Acetylsalicylic acid, acetylsalicylic acid] | 225 | 160 | 168.8 | 110 | 112.5 | not essentially affected | 340 | 240 | 255 | 70 | 170 | 1260 | 1000 | 155 | for the most part a synergistic response | 115 | 116.3 | 40 | 77.5 | 945 | –
CCOc1c(N2CCOCC2)cnn(C)c1=O [Emorfazone, 4-ethoxy-2-methyl-5-morpholino-3(2H)-pyridazinone] | 115 | – | – | – | – | – | 18 | – | – | – | – | – | – | 40 | – | – | – | – | – | – | inhibitory effect of emorfazone alone ([2]; 100 mg/kg, used alone): did not show any significant effect when used alone; inhibition of the biosynthesis of prostaglandin (emorfazone) [7]: does not inhibit the biosynthesis of prostaglandin
CC(C(=O)O)c1ccc(-c2ccccc2)c(F)c1 (centres unmarked) [Flurbiprofen] | – | 2.8 | 3.0 | 1.9 | 2 | significantly potentiated | 22 | 15 | 16.5 | – | 11 | 210 | 155 | 2 | for the most part a synergistic response | 6.2 | 8 | 0.8 | 1 | 157.5 | ED30 ([1]; Mus musculus, po, read-out: ED30 (dose which decreased the amount of dye of the control group by 30%), drug alone): 4 mg/kg
CC(C)Cc1ccc(C(C)C(=O)O)cc1 (centres unmarked) [Ibuprofen] | 76 | 56 | 57 | 37 | 38 | significantly potentiated | 120 | 10 | 90 | 8 | 60 | – | – | 13.5 | for the most part a synergistic response | 8 | 10.1 | 3 | 6.8 | 862.5 | –
